Data on six test systems can be found in the supplement of paper PMC6045584.

Compound in one experiment: C=CC(=O)Nc1cc2c(Nc3ccc(F)c(Cl)c3)ncnc2cc1OCCCN1CCOCC1 [CANERTINIB]
The experiment is described as follows: surviving fraction relative to DMSO-only wells; higher = less growth inhibition. As to conditions: exposure time: 5 days. In outline: (§1)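 Log-phase tumour cell lines were seeded at 250–500 cells per well in 384-well plates. After 24 hours they were exposed continuously for five days to inhibitors at 0.5, 1, 5, 10, 50, 100, 500 and 1000 nM. Viability was read by CellTiter-Glo luminescence after 10 minutes at room temperature, and surviving fraction is luminescence normalised to the median of DMSO-only wells. Each line was screened three times and kept only if replicate Pearson r >0.7 and median Z' >0.3.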

Compound in the next experiment: CC[C@@H]1C(=O)N(C)c2cnc(Nc3ccc(C(=O)NC4CCN(C)CC4)cc3OC)nc2N1C1CCCC1 [BI-2536]
The experiment is described as above. As to conditions: exposure time: 5 days. The essentials:
as §1

± gives the standard deviation of the averaged measurements.

Regarding PCI30 HEADNECK, the surviving fraction with CANERTINIB (0.5 nM) is 0.962 ± 0.047; with CANERTINIB (1 nM) it was 0.879 ± 0.058; in the experiment with CANERTINIB (5 nM) it was 0.866 ± 0.042; with CANERTINIB (10 nM), 0.641 ± 0.032; with CANERTINIB (50 nM), 0.485 ± 0.03; in the experiment with CANERTINIB (100 nM), 0.47 ± 0.017. The surviving fraction was determined as 0.323 ± 0.034 with CANERTINIB (500 nM); 0.228 ± 0.028 with CANERTINIB (1000 nM); 0.988 ± 0.027 with BI-2536 (0.5 nM); 0.689 ± 0.054 with BI-2536 (1 nM); 0.128 ± 0.015 in the experiment with BI-2536 (5 nM); 0.149 ± 0.01 with BI-2536 (10 nM). The surviving fraction with BI-2536 (50 nM) was found to be 0.286 ± 0.029; in the experiment with BI-2536 (100 nM), 0.337 ± 0.02; with BI-2536 (500 nM) it was 0.357 ± 0.0049; in the experiment with BI-2536 (1000 nM), 0.255 ± 0.011.
With SAOS2 BONE, the surviving fraction with CANERTINIB (0.5 nM) came out at 0.853 ± 0.028; with CANERTINIB (1 nM) it was 0.85 ± 0.042; in the experiment with CANERTINIB (5 nM), 0.877 ± 0.06; with CANERTINIB (10 nM), 0.818 ± 0.015; with CANERTINIB (50 nM) it was 1.02 ± 0.038; with CANERTINIB (100 nM) it was 1.04 ± 0.12. Besides, the surviving fraction with CANERTINIB (500 nM) was found to be 0.815 ± 0.026; in the experiment with CANERTINIB (1000 nM) it was 0.703 ± 0.063; with BI-2536 (0.5 nM), 1.03 ± 0.036; in the experiment with BI-2536 (1 nM), 0.875 ± 0.025; with BI-2536 (5 nM), 0.083 ± 0.0052; with BI-2536 (10 nM), 0.0753 ± 0.0023. Further, the surviving fraction is 0.146 ± 0.0046 with BI-2536 (50 nM), 0.194 ± 0.015 with BI-2536 (100 nM), 0.129 in the experiment with BI-2536 (500 nM) and 0.075 with BI-2536 (1000 nM).
With SCC003 HEADNECK, the surviving fraction with CANERTINIB (0.5 nM) was 0.691 ± 0.065; in the experiment with CANERTINIB (1 nM), 0.867 ± 0.032; with CANERTINIB (5 nM), 0.897 ± 0.054; with CANERTINIB (10 nM), 0.775 ± 0.014; with CANERTINIB (50 nM) it was 0.899 ± 0.075; with CANERTINIB (100 nM), 0.8 ± 0.075. Further, the surviving fraction with CANERTINIB (500 nM) is 0.718 ± 0.036; with CANERTINIB (1000 nM), 0.434 ± 0.061; in the experiment with BI-2536 (0.5 nM), 1.06 ± 0.12; in the experiment with BI-2536 (1 nM), 0.93 ± 0.027; in the experiment with BI-2536 (5 nM), 0.467 ± 0.059; with BI-2536 (10 nM), 0.412 ± 0.066. The surviving fraction in the experiment with BI-2536 (50 nM) amounted to 0.596 ± 0.074; in the experiment with BI-2536 (100 nM), 0.582 ± 0.033; with BI-2536 (500 nM), 0.381 ± 0.019; in the experiment with BI-2536 (1000 nM), 0.275 ± 0.028.
In the case of SCC36 HEADNECK, the surviving fraction in the experiment with CANERTINIB (0.5 nM) is 0.715 ± 0.044; with CANERTINIB (1 nM), 0.747 ± 0.059; in the experiment with CANERTINIB (5 nM), 0.645 ± 0.054; with CANERTINIB (10 nM), 0.753 ± 0.016; with CANERTINIB (50 nM) it was 0.741 ± 0.039; with CANERTINIB (100 nM) it was 0.747 ± 0.045. Further, the surviving fraction in the experiment with CANERTINIB (500 nM) came to 0.328 ± 0.023; with CANERTINIB (1000 nM), 0.329 ± 0.035; with BI-2536 (0.5 nM), 0.945 ± 0.088; in the experiment with BI-2536 (1 nM), 0.897 ± 0.19; with BI-2536 (5 nM), 0.189 ± 0.011; in the experiment with BI-2536 (10 nM), 0.191 ± 0.01. Besides, the surviving fraction in the experiment with BI-2536 (50 nM) turned out to be 0.291 ± 0.04; with BI-2536 (100 nM), 0.24 ± 0.018; in the experiment with BI-2536 (500 nM), 0.114 ± 0.0061; with BI-2536 (1000 nM), 0.07 ± 0.0053.
As for SCC90 HEADNECK, the surviving fraction with CANERTINIB (0.5 nM) was 0.781 ± 0.13; with CANERTINIB (1 nM) it was 0.793 ± 0.056; in the experiment with CANERTINIB (5 nM), 0.787 ± 0.018; with CANERTINIB (10 nM) it was 0.737 ± 0.064; with CANERTINIB (50 nM), 0.656 ± 0.075; with CANERTINIB (100 nM), 0.564 ± 0.065. Further, the surviving fraction turned out to be 0.428 ± 0.021 in the experiment with CANERTINIB (500 nM); 0.335 ± 0.051 with CANERTINIB (1000 nM); 0.939 ± 0.12 with BI-2536 (0.5 nM); 0.461 ± 0.057 with BI-2536 (1 nM); 0.075 ± 0.0044 with BI-2536 (5 nM); 0.0887 ± 0.0087 in the experiment with BI-2536 (10 nM). The surviving fraction with BI-2536 (50 nM) worked out at 0.148 ± 0.007; with BI-2536 (100 nM), 0.198 ± 0.022; with BI-2536 (500 nM) it was 0.217 ± 0.036; with BI-2536 (1000 nM) it was 0.138 ± 0.011.
On to SG27 HEADNECK, for which the surviving fraction is 1.03 ± 0.15 with CANERTINIB (0.5 nM); 1.06 ± 0.054 in the experiment with CANERTINIB (1 nM); 1.03 ± 0.067 with CANERTINIB (5 nM); 0.883 ± 0.1 with CANERTINIB (10 nM); 1.01 ± 0.1 with CANERTINIB (50 nM); 0.999 ± 0.028 in the experiment with CANERTINIB (100 nM). The surviving fraction with CANERTINIB (500 nM) is 0.96 ± 0.13; with CANERTINIB (1000 nM), 0.894 ± 0.08; with BI-2536 (0.5 nM), 0.99 ± 0.077; with BI-2536 (1 nM) it was 1.16 ± 0.1; in the experiment with BI-2536 (5 nM) it was 1.04 ± 0.06; in the experiment with BI-2536 (10 nM), 1.03 ± 0.098. Besides, the surviving fraction with BI-2536 (50 nM) amounted to 1 ± 0.076; in the experiment with BI-2536 (100 nM), 1 ± 0.1; in the experiment with BI-2536 (500 nM) it was 0.391 ± 0.11; with BI-2536 (1000 nM) it was 0.212 ± 0.068.
